≈ marks a conversion by molar mass, not a printed value.
Conditions: buffer; pH 7.4; 200.0 µM

Point of comparison: `Cc1ccc(C(=O)Nc2ccc(C)c(S(=O)(=O)N3CCOCC3)c2)c(C)c1`, solubility kinetic 37.9 µg/mL (≈ 97.6 µM). Against it:
- Cn1cnc(Sc2ncnc3nc[nH]c23)c1[N+](=O)[O-] — within 1.5-fold, 29.7 µg/mL (≈ 107 µM)
- COC(=O)c1ccc(N/C=C/C(=O)c2ccccc2)cc1 — 25-fold lower, 1.5 µg/mL (≈ 5.33 µM)
- Cc1cc(Br)ccc1N=C1C(=O)Nc2ccccc21 — 4.7-fold lower, 8 µg/mL (≈ 25.4 µM)
- CCOC(=O)c1c(C=O)c2ccccc2n1Cc1ccccc1F — lower, < 0.7 µg/mL
- CN(C)CCCNc1oc(-c2ccc(Cl)cc2)nc1S(=O)(=O)c1ccccc1 — higher, > 63 µg/mL
- Cc1c(NCc2ccncc2)cccc1C(=O)O — not separable, > 36.3 µg/mL
- COc1ccc(C)cc1S(=O)(=O)N1CCCCCC1 — within 1.5-fold, 40.7 µg/mL (≈ 144 µM)
- O=C1CCN(Cc2nc(-c3ccc(Cl)cc3)no2)CCN1 — higher, > 46 µg/mL
- Cc1cc(NCc2ccc(F)cc2)nc2cc(Cl)ccc12 — 47-fold lower, 0.8 µg/mL (≈ 2.66 µM)
- C=CCOc1ccc(/C=C2\SC(N3CCCCC3)=NC2=O)cc1 — lower, < 0.4 µg/mL
- Cc1cccc(NC(=S)NCc2ccccc2Cl)c1C — lower, < 0.3 µg/mL
- CCC(C)n1c(O)c(C=NCCc2ccccc2)c(=O)[nH]c1=S (stereo unspecified) — 7.4-fold lower, 5.1 µg/mL (≈ 15.4 µM)
- COc1ccc(-c2ccc(C(=O)O)o2)c([N+](=O)[O-])c1 — higher, > 39.5 µg/mL
- COC(=O)C1=C(C)NC(=O)NC1c1c(O)ccc2ccccc12 (stereo unspecified) — 2.5-fold lower, 15.2 µg/mL (≈ 48.7 µM)
- COC(=O)Cc1ccc(NC(=S)N2CCC(Cc3ccccc3)CC2)cc1 — 5.8-fold lower, 6.5 µg/mL (≈ 17 µM)
- N#Cc1ccc(C(=O)OCC(=O)N2CCCC2)cc1 — higher, > 38.7 µg/mL
- CCC1(C)Cc2ccccc2-c2nc(SCC(N)=O)[nH]c(=O)c21 (stereo unspecified) — 47-fold lower, 0.8 µg/mL (≈ 2.43 µM)
- CC(=O)N/C(=N/c1nc(C)cc(C)n1)Nc1ccc(F)cc1F — 24-fold lower, 1.6 µg/mL (≈ 5.01 µM)
- CCOc1ccc(C(C)NC(=O)c2cccs2)cc1OCC (stereo unspecified) — 3.4-fold lower, 11.1 µg/mL (≈ 34.7 µM)
- CCc1noc(N)c1C(=O)Nc1ccc(Cl)cc1 — higher, > 39.9 µg/mL
- CCCn1c(Oc2ccccc2)nc2c1c(=O)n(C)c(=O)n2C — within 1.5-fold, 45 µg/mL (≈ 143 µM)
- COc1ccc(C(=O)NC2CCCc3ccccc32)cc1 (stereo unspecified) — 5.8-fold lower, 6.5 µg/mL (≈ 23.1 µM)
- CSc1ncc(C(=O)Nc2cccc(Cl)c2C)c(C)n1 — 2-fold lower, 18.8 µg/mL (≈ 61.1 µM)
- CC(C)CC(=O)N1CCN(Cc2ccc3ccccc3c2)CC1 — within 1.5-fold, 26.4 µg/mL (≈ 85 µM)
- O=C(COC(=O)CN1C(=O)NC2(CCCC2)C1=O)NCc1ccc(Cl)cc1Cl — higher, > 64.2 µg/mL
- COc1cc(CC(=O)OCC(=O)N2CCN(C(=O)c3ccco3)CC2)cc(OC)c1OC — higher, > 67 µg/mL
- COC(=O)c1cccc(Cn2cc([N+](=O)[O-])cn2)c1 — higher, > 39.2 µg/mL
- CC1Oc2ccccc2N(CC(=O)NCc2ccc3c(c2)OCO3)C1=O (stereo unspecified) — 2-fold lower, 18.9 µg/mL (≈ 53.3 µM)
- COC(=O)Nc1nc(-c2ccc(F)cc2)c(C)s1 — 17-fold lower, 2.2 µg/mL (≈ 8.26 µM)
- CN(C)Cc1c(O)ccc2occ(C(=O)c3ccc(F)cc3)c12 — higher, > 47 µg/mL
- COc1ccccc1NC(=O)CC(=O)c1ccccc1 — higher, > 40.4 µg/mL
- O=C(NCc1ccccc1Cl)c1cc2ccccc2oc1=O — lower, < 0.7 µg/mL
- CN(CC(=O)Nc1ccc(Cl)cc1)C1CCCCC1 — within 1.5-fold, 36 µg/mL (≈ 128 µM)
- CC(C)[C@H](NC(=O)c1ccco1)C(=O)OCC(=O)c1ccc(Br)s1 — higher, > 62.1 µg/mL
- COc1ccc2[nH]c(C(=O)NCCN3CCCCC3)cc2c1 — within 1.5-fold, 39.7 µg/mL (≈ 132 µM)
- CCc1ccnc(NC(=O)Nc2ccc(OCc3ccccc3)cc2)c1 — lower, < 0.2 µg/mL
- O=C(NC12CC3CC(CC(C3)C1)C2)N1CCN(c2ccccc2)CC1 — 3-fold lower, 12.7 µg/mL (≈ 37.4 µM)
- CCCOc1ccc(-c2csc3nc[nH]c(=O)c23)cc1 — 13-fold lower, 2.9 µg/mL (≈ 10.1 µM)
- Cc1ccccc1NC(=O)C1CCN(C(=O)NC2CCCCC2)CC1 — higher, > 51.5 µg/mL
- Cc1cc(C(=O)N/N=C2\CCCC(=O)C2)c(C)o1 — not separable, > 37.2 µg/mL
- COc1ccccc1OC(=O)Nc1ccc(Cl)cc1 — 2.1-fold lower, 17.8 µg/mL (≈ 64.1 µM)
- Cc1[nH]c2ccccc2c1C(=O)C(=O)NCCCn1ccnc1 — higher, > 46.6 µg/mL
- Cc1ccc(NC(=S)NCCC2=CCCCC2)cc1 — 63-fold lower, 0.6 µg/mL (≈ 2.19 µM)
- COC(=O)c1[nH]c2ccccc2c1Sc1ccccc1 — 42-fold lower, 0.9 µg/mL (≈ 3.18 µM)
- O=C(CSc1ncccn1)NC(=O)NCc1ccco1 — within 1.5-fold, 40.8 µg/mL (≈ 140 µM)
- CCn1cnc2cc(NCc3cccs3)ccc21 — higher, > 38.6 µg/mL
- O=S(=O)(c1ccc(F)c(F)c1)N1CCN(c2ccccn2)CC1 — 25-fold lower, 1.5 µg/mL (≈ 4.42 µM)
- Cc1cccc(NC(=O)c2ccccc2NC(=O)c2ccco2)c1 — 76-fold lower, 0.5 µg/mL (≈ 1.56 µM)
- Cc1ccc(NC(=O)c2sc(N)nc2C)cc1 — not separable, > 37.1 µg/mL
- CCN(Cc1ccccc1)C(=O)c1cc2cc(OC)c(OC)cc2[nH]1 — lower, < 0.4 µg/mL
- CCOc1ccccc1C(=O)NC1CCNCC1 — not separable, > 37.2 µg/mL
- CC(C)CC(=O)Nc1ccc(S(=O)(=O)N2CCCC2)cc1 — higher, > 46.6 µg/mL
- O=C(COc1ccc([N+](=O)[O-])cc1Cl)NCC1CCCO1 (stereo unspecified) — higher, > 47.2 µg/mL
- O=C(Cc1nc2ccccc2[nH]1)c1ccc(Br)cc1 — 1.5-fold lower, 24.6 µg/mL (≈ 78.1 µM)
- CC(Sc1ncccn1)C(=O)NNC(=O)c1cccc(Cl)c1 (stereo unspecified) — higher, > 50.5 µg/mL
- CS(=O)(=O)Cc1ccc(C(=O)NC2CCCc3ccccc32)cc1 (stereo unspecified) — 3.9-fold lower, 9.6 µg/mL (≈ 28 µM)
- COc1cc(Br)ccc1NC(=O)c1ccccc1-c1ccccc1C(=O)O — within 1.5-fold, 53.3 µg/mL (≈ 125 µM)
- CCN(CC)C(=O)COC(=O)C1=NN(c2cc(C)ccc2C)C(=O)CC1 — higher, > 53.9 µg/mL
- CCN(C(=O)CN1C(=O)c2ccc([N+](=O)[O-])cc2C1=O)C1CCCCC1 — higher, > 53.9 µg/mL
- Cc1cccc(C(=O)OCC(=O)NC(=O)Cc2ccccc2)c1O — 6.5-fold lower, 5.8 µg/mL (≈ 17.7 µM)
- O=C(Nc1nc2ccccc2s1)NC1CCCCC1 — 24-fold lower, 1.6 µg/mL (≈ 5.81 µM)
- Cc1noc(C(=O)Nc2ccc(F)c(Cl)c2)c1Cl — 27-fold lower, 1.4 µg/mL (≈ 4.84 µM)
- Cc1ccc(C(=O)N(CN2CCCC2=O)c2ccccc2)cc1 — higher, > 46.3 µg/mL
- CC1CCC(NC(=O)C2CC(O)CN2S(=O)(=O)c2ccc([N+](=O)[O-])cc2)CC1 (stereo unspecified) — higher, > 61.7 µg/mL
- O=C(CS(=O)(=O)c1ccccc1)Nc1nc2ccccc2s1 — higher, > 49.9 µg/mL
- O=C(Cn1cc(C(=O)c2ccccc2F)c2ccccc21)NC1CC1 — 19-fold lower, 2 µg/mL (≈ 5.95 µM)
- CCOC(=O)C(=O)NCC(c1ccco1)S(=O)(=O)c1cccs1 (stereo unspecified) — higher, > 53.6 µg/mL
- NC(=O)c1ccc(NC(=O)COC(=O)c2ccc(Cl)nc2)cc1 — higher, > 50.1 µg/mL
- Cc1ccc(C(=O)OCC(=O)NC(=O)c2ccccc2)o1 — within 1.5-fold, 32.9 µg/mL (≈ 115 µM)
- CC(CNC(=O)c1ccccc1Cl)c1ccccc1 (stereo unspecified) — within 1.5-fold, 36.6 µg/mL (≈ 134 µM)
- Cc1ccc(NC(=O)c2ccc(C(=O)c3ccccc3)cc2)nc1 — 7.4-fold lower, 5.1 µg/mL (≈ 16.1 µM)
- Cc1nc(SCc2ccc(F)cc2)c2oc3ccccc3c2n1 — lower, < 0.3 µg/mL
- Cn1c(=O)c2c(ncn2CC(=O)OCC(=O)Nc2ccc(F)cc2Cl)n(C)c1=O — higher, > 63.6 µg/mL
- CC(=O)Nc1nc2c(ccc3ccccc32)s1 — 42-fold lower, 0.9 µg/mL (≈ 3.71 µM)
- CCOC(=O)Cc1csc(NC(=O)Nc2ccc(F)cc2)n1 — 8.6-fold lower, 4.4 µg/mL (≈ 13.6 µM)
- O=C(O)C(=O)O.c1ccc2c(c1)CCN(C1CCCCC1)C2 — within 1.5-fold, 44 µg/mL
- Cc1ccc(OCCNC(=O)CCc2ccccc2)cc1C — 2.9-fold lower, 12.9 µg/mL (≈ 43.4 µM)
- CC1CCC(NC(=O)CNC(=O)c2cccs2)CC1 (stereo unspecified) — higher, > 42.1 µg/mL
- CC1CCCC(NC(=O)Cn2cc(Br)ccc2=O)C1C (stereo unspecified) — higher, > 51.2 µg/mL
- O=c1[nH]c2ccccc2c(O)c1O — not separable, > 26.6 µg/mL
- CCOC(=O)C1CCN(CC(=O)c2c(C)n(C)c3ccc(OC)cc23)CC1 — higher, > 55.9 µg/mL
- Cc1ccc(C(=O)O)cc1NC(=O)C1=CSCCO1 — higher, > 41.9 µg/mL
- Cc1ccc(NC(=O)CN2C(=S)NC(C)(C)CC2C)cc1Cl (stereo unspecified) — 4.6-fold lower, 8.2 µg/mL (≈ 24.1 µM)
- CSc1ncccc1C(=O)OCC(=O)NC1CCCC1 — higher, > 44.2 µg/mL
- COc1ccc(C)cc1Nc1nc(C)nc2sc(C)cc12 — 16-fold lower, 2.3 µg/mL (≈ 7.68 µM)

From PubChem BioAssay AID1996
